Assay results: patent US8097615B2, “Neurofibrillary labels” (Wista Laboratories Ltd., priority 2001, dated 2012)

Experiments:
[1] = target: T1, synthetic beta-amyloid fibrils (Homo sapiens, UniProt P05067); settings: in vitro; cited from earlier work
T1 construct: host or cells: synthetic peptide

[2] = PET after injection; cases with clinical and neuroradiological diagnosis of Alzheimer's disease; cited from earlier work
PHFs = test: Morphological studies of PHFs in the presence of phenothiazines (electron microscopy)
tau-tau binding [3] = target: T2, tau-tau binding (Homo sapiens, UniProt P10636); test: Relief of DMMB inhibition of tau-tau binding by ligands (Preparation 2); format: biochemical
T2 construct: a truncated tau protein corresponding to the core fragment and terminating at Ala390-dGA; dGAE which terminates at Glu-391; made in house; host or cells: E. coli BL21 (DE3), pRK172; DE52 flow-through, P11 phosphocellulose, PEG concentration, no heat step (Preparation 2)
T2 sequence (P10636 614-708 limits assumed): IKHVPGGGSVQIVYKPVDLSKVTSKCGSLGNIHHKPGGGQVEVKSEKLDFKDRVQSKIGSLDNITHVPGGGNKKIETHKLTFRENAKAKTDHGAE
Excerpt: 2. using tau proteins prepared in this manner for testing putative ligands in the tau-tau binding assay provided in WO96/30766 to identify substances which have minimal or entirely absent activity as tau-aggregation inhibitors or enhance tau-tau binding at high concentrations; 3. testing putative ligands in the presence of an exemplary potent tau-aggregation inhibitor, such as DMMB, at an inhibitory concentration; 4. putative ligands can be identified by the property that they lack capacity to block tau-tau binding through the repeat domain, but block the inhibitory activity of a potent tau-aggregation inhibitor.
(ii) contacting (a) a tau protein or a derivative thereof containing the tau core fragment bound to a solid phase so as to expose a high affinity tau capture site (e.g. a truncated tau protein corresponding to the core fragment and terminating at Ala390-dGA), with (b) a liquid phase tau protein or derivative thereof capable of binding to the solid phase tau protein or derivative (e.g. dGAE which terminates at Glu-391), and (c) said selected first agent and (d) a second agent known to be tau-tau binding inhibitor, (iii) selecting a first agent which fully or partially relieves the inhibition of binding of the liquid phase tau protein or derivative of (b) to the solid phase tau protein or derivative of (a) by the inhibitor (d).
Similar results are shown for 15 μM DMMB in the presence of increasing concentrations of Primulin (c) and Thiazin Red (d).
For each graph, Tau-Tau binding is shown in the presence of constant concentrations of DMMB co-incubated with Primulin at 0×, 1×, 5×, 10×, 100× the DMMB concentrations shown.
This implies that the Tau-aggregation enhancement effect of these ligands is proportional to the fraction of ligand-binding sites occupied, presumably within the Tau aggregates introduced into the aqueous-phase of the assay. The mean Bmax for both ligands is ˜1.6. That is, the maximum ligand effect is to produce 1.6-fold the Tau-Tau binding signal seen in the absence of any drug. The mean Kd for this effect is ˜15×. That is, for any given concentration of DMMB>4 μM, 50% of maximal enhancement of Tau-Tau binding can be seen when the ligand molar excess is 15-fold relative to the concentration of DMMB.

tau-tau binding [4] = test: Solid-phase tau-tau binding assay, tau Preparation 1 (WO96/30766); format: biochemical, human
Excerpt: This point was further examined by studying the potency of typical aggregated tau ligands as tau-aggregation inhibitors. It has been shown previously that tau aggregation inhibitors (e.g. diaminophenothiazines) can be identified on the basis of inhibition of tau-tau binding in a solid-phase assay (WO 96/30766). […] Thus, although these compounds are potent ligands for tau within the PHF-core, they are at most weak inhibitors at the site required for inhibition of tau-tau binding.
Large-scale purification (1 liter bacterial culture) of tau fragments was carried out as described by Goedert and Jakes (1990, EMBO J., 9, 4225-4230), with minor modifications. Cells were disrupted by rapid freezing of the cell pellet in liquid nitrogen. The pellets were then suspended in buffer containing 50 mM PIPES, 1 mM dithiothreitol (DTT) (pH 6.8). The thermostable proteins in the supernatant were dialysed against PIPES/DTT, then applied to a column containing phosphocellulose equilibrated in the same buffer. […] Fractions were analysed by SDS-PAGE and both Coomassie staining and immunoblotting. […] Protein concentrations were measured by the Lowry method (Harrington C R (1990), “Lowry protein assay containing sodium dodecyl sulphate in microtitre plates for protein determinations on fractions from brain tissue”, Analytical Biochemistry 186: 285-287).

tangle fragments = test: Competitive binding assay: displacement of primulin fluorescence from tangle fragments (ifI); parameters: species or system human; settings: fluorescence end point
Method: IfI material was homogenised in a 0.2 ml glass homogeniser in PBS. To the suspension, test compounds were added to final concentrations ranging from 0.1% to 0.00001%. […] The suspensions were transferred to a glass slide, and examined by fluorescence microscopy across a range of fluorescence filter blocks, covering excitation and emission wavelengths between 380 nm and 570 nm. The end point sought in these observations was displacement of typical primulin fluorescence from tangle fragments.

tau-tau binding [5] = target: T2, tau-tau binding; test: Solid-phase tau-tau binding assay (dGA solid phase, dGAE liquid phase), tau Preparation 2; format: biochemical; settings: Preparation 2
Method: Preparation 2 differs from Preparation 1 above in the following respects: (1) The concentration of cells at the sonication stage is increased by 5-fold. (2) A batchwise adsorption of non-tau proteins to DE52 is included. (3) The proteins are not subjected to heat treatment. (4) The final step involves concentration using polyethylene glycol.
Escherichia coli is grown in 2×TY medium (Oxoid) supplemented with ampicillin (50 micrograms per ml) to late-logarithmic phase. Cells from 5 liters of culture are harvested by centrifugation and the cell pellets frozen rapidly over liquid nitrogen. The pellets are taken up with 50 mM PIPES (pH 6.8) containing 1 mM EDTA, 1 mM dithiothreitol and 1 mM phenylmethylsulphonylfluoride (PMSF) and bacteria lysed by sonication (2×3 min) at 4 C. The mixture is centrifuged at 10,000 rpm for 20 min. The supernatant is rotated with 1 gram of Whatman DE52 for 3 hr at 4 C. The mixture is separated on a column and the flow-through material that fails to bind to DE52 is incubated for 3 hr at 4 C, with rotation, with 0.4 g of Whatman P11 (freshly regenerated according to manufacturer's recommendations). The column is washed with column buffer (50 mM PIPES, pH 6.8 containing 1 mM EGTA, 5 mM EDTA, 0.2 mM MgCl2, 5 mM β-mercaptoethanol and 1 mM PMSF). Tau protein is eluted stepwise with a 0.1 to 1 M gradient of KCl in column buffer. Fractions containing tau (determined by immunoassay) are pooled and dialysed against 80 mM PIPES (pH6.8) containing 1 mM EGTA, 1 mM MgCl2 and 5 mM β-mercatoethanol, using dialysis tubing with a molecular weight cut-off of 1,000. The dialysate is concentrated by applying polyethylene glycol 8000 to the outside of the sac for 2-3 hr. The final concentration of tau ranged from 3 to 10 mg per ml.
When the proteins dGA and dGAE were prepared as indicated above (“Preparation 2”), the properties of the tau-tau binding assay were altered relative to the properties obtained using the preparative method described in WO96/30766 (“Preparation 1”).
The assay is performed using 96 well PVC plates (Falcon Cat. No. 353912 are used), and the following steps:
1. 50 μl dGA (˜10 μg/ml) in carbonate buffer, incubate 1 h at 37° C.
(Carbonate buffer: 50 mM carbonate bicarbonate, pH 9.6 (Na2CO3 1.59 g/l, NaHCO3 2.93 g/l))
2. Wash plate in 0.05% Tween-20.
3. 200 μl PBS+2% Marvel, incubate 1 h at 37° C.
4. Rinse plate 2× in deionised water, then wash in 0.05% Tween-20.
5. 50 μl dGAE (˜10 μg/ml) plus drug in PBS+1% fish skin gelatin+0.05% Tween-20, incubate 1 h at 37° C.
6. Wash plate in 0.05% Tween-20.
7. 50 μl antibody 423 (1:10 dilution in PBS+2% Marvel), incubate 1 h at 37° C.
8. Rinse plate 2× in deionised water, then wash in 0.05% Tween-20.
9. 50 μl HRP-anti-mouse (1:1000 dilution in PBS+0.05% Tween-20), incubate 1 h at 37° C.
10. Wash plate in 0.05% Tween-20, then rinse 1× with deionised water.
11. 50 μl substrate solution, read immediately initial rate over 2 min in plate reader at OD650.
(Substrate solution: 50 mM sodium acetate, pH 5.0+TMB (1 ml/100 ml of a 10 mg/ml solution in DMSO)+H2O2 (10 μl/100 ml)).

T1 sequence (P05067 672-711 limits assumed): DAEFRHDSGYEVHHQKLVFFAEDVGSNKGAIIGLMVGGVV

CC(=C(C#N)C#N)c1ccc2cc(N(C)CC[18F])ccc2c1 [FDDNP, 2-(1-{6-[(2-[^18F]fluoroethyl)(methyl)amino]-2-naphthyl}ethylidene)malononitrile]
binding to synthetic beta-amyloid fibrils [1]: bind with high affinity
relative retention time (RRT) [2]: increased relative retention time

CN(C)c1ccc2nc3ccc(=[N+](C)C)cc-3sc2c1 [methylene blue]
disruption of PHF structure (PHFs): disruption of PHF structure in the presence of sufficiently high concentrations

Cc1ccc2sc(-c3ccc(N=Nc4cc(S(=O)(=O)[O-])c5ccccc5c4O)cc3)nc2c1S(=O)(=O)[O-].[Na+].[Na+] [thiazin red]
BMax of tau-tau binding (tau-tau binding [3]; 5 μM DMMB, Binding=(BMax×[ligand])/(Kd+[ligand])): 1.64
reversal of inhibitory effect of DMMB on tau-tau binding (tau-tau binding [3]; co-incubation with increasing molar excess of ligand): completely reversed
inhibition of tau-tau binding (tau-tau binding [4]): weak inhibitors of tau-tau binding
competition with / displacement of other ligands at tangles (tangle fragments): compete with primulin at equivalent concentrations
inhibition of tau-tau binding (tau-tau binding [5]): no inhibitory activity
